Results as given in patent publication US20180201651A1, “PHARMACEUTICAL COMPOSITION THAT IS ANTICANCER AND SUPPRESSES CANCER METASTASIS, CONTAINING, AS ACTIVE INGREDIENT, FUSION PEPTIDE SIMULTANEOUSLY TARGETING CANCER CELL AND TUMOR ASSOCIATED MACROPHAGE” (Kyungpook National University Industry-Academic Cooperation …, priority 2015, published 2018).
Where no end group is shown, it is not given here.

Assays:
IL-4 receptor [1] = assay: Immunofluorescent staining of IL4RPep-1 bound to IL-4 receptors and cells; assay type: cell-based
Method: In order to test whether the peptides binds to cells, tumor cells were blocked with 1% BSA solution initially, 10 μM FITC-labeled IL4RPep1 peptides of SEQ ID NO: 1 were then incubated at 4° C. for 1 hour. The cells were washed and fixed with 4% PFA, while their nuclei were stained with DAPI.
To evaluate the expression level of IL-4 receptor in the cells or tumor tissues, immunostaining was performed on frozen tissue sections or fixed mouse tumor cell lines by using anti-IL-4R, anti-IL13Rα1 and anti-IL2R γC antibodies.
After being washed with PBS, the cells were incubated at room temperature for 1 hour with secondary antibodies. Finally, following nuclear staining with DAPI, the cells were examined by a fluorescence microscope (Zeiss, Germany).

IL-4 receptor [2] = target: T1, IL-4 receptor (Mus musculus, UniProt P16382); assay: In vivo optical imaging and histological analysis of peptide binding in 4T1 tumor cells-transplanted mice; conditions: for fluorescence in tumor tissues: Flamma 675-labeled peptide, tail vein
T1 construct: from tissue; host or cells: 4T1 tumour tissue in wild-type Balb/c mice (IL4R alpha knockout mice as negative control)
T1 sequence (P16382 26-810): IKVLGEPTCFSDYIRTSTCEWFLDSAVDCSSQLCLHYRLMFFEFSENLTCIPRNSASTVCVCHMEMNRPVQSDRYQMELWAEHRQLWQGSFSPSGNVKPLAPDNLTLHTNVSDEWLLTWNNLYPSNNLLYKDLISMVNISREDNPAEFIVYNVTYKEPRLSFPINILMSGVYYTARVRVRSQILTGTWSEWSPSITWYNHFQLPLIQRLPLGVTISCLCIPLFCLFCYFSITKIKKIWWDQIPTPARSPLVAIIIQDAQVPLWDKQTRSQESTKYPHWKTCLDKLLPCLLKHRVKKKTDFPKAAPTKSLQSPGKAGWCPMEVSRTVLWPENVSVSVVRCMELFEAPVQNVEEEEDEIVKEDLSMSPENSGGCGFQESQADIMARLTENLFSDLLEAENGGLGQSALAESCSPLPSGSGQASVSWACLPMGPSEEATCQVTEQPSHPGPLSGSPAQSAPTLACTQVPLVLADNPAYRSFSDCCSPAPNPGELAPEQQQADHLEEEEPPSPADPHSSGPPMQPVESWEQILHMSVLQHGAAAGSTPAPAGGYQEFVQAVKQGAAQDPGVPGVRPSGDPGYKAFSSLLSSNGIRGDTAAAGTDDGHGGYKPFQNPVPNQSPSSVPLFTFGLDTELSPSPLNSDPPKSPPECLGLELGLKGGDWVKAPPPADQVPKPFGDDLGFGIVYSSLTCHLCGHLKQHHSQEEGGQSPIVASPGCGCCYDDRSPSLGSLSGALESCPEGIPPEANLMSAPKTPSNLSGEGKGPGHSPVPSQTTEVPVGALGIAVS
Description: Female wild-type Balb/c mice were purchased from Orient Bio (Republic of Korea) to prepare IL-4 receptor-deficient mice. Mouse tumor models were produced by subcutaneously injecting 1×10^6 4T1 tumor cells into the flank top skin of the wild-type and IL-4 receptor-deficient mice, respectively. Orthotopic animal models were produced by injecting 1×10^6 4T1 cells into the mammary fat tissue of the mice.
(§1) The Flamma 675-labeled IL4RPep-1 peptide (SEQ ID NO: 1) and control peptide (NSSSVDK) of SEQ ID NO: 7 were administered via the tail vein of 4T1 tumor cells-transplanted wild-type mice and the IL-4 receptor-deficient mice, respectively. In vivo imaging was conducted using the Optix imaging system (ART Inc., Canada) after one hour and two hours circulation. The mice were sacrificed after imaging, and tumors and organs were then excised for ex vivo imaging.
For immunohistochemical analysis, excised tumors were fixed with 4% PFA and dehydrated with 30% sucrose. 8 μm thick slices of the tumor were prepared and their histological structures were evaluated by DAPI staining.
Additionally, in order to analyze the tendency of […] of the peptide and the receptor in the tumor tissues, the tumor samples were immunostained with anti-IL4Rα antibodies and F4/80 antibodies, followed by detection with Alexa-488/594-conjugated secondary IgG antibodies (invitrogen).

IL-10-treated 4T1 cells = assay: IL4RPep-1 binding affinity assay on IL-10-treated versus wild-type 4T1 cells; parameters: species or system mouse; conditions: FIG. 9A
Method: Blocking the tumor cells with 1% BSA at room temperature for 30 minutes, the biotin-labeled IL4RPep-1 peptides of various concentrations (1 to 80 μM) were incubated for 1 hour. After washing with PBS, the cells were incubated with Neutravidin HRP (1: 10000) at room temperature for 30 minutes. HRP activity was measured by using the TMB substrate, and the reaction was stopped using 2M sulfuric acid. Absorbance was measured at 450 nm using TECAN microplate reader. Kd values were calculated using Graph Pad Prism 6 software (GraphPad software Inc., La Jolla, La.).
4T1 cells were cultured using DMEM medium containing 50% of the mouse spleen-derived macrophages which were differentiated into M2 type macrophages. As for the culture medium containing TAM, the debris was removed by centrifugation and strainer prior to use. Cytokine-induced epithelial mesenchymal transition was implemented by culturing the cells with mouse IL-10 and mouse IL-4 for 24 hours or with mouse TFGβ-containing medium for 48 hours. Subsequently, the cells were stained with N-cadherin (a mesenchymal marker), and the expression level of IL-4 receptor was evaluated.

4T1 tumor = assay: In vivo anti-cancer and cancer metastasis inhibitory activity, orthotopic 4T1 tumor model; parameters: species or system mouse
Method: Orthotropic 4T1 tumor model were produced by the implantation of 1×10^6 4T1 cells into the left mammary fat pad of the wild-type Balb/c mouse. Tumor was left to grow until its size reached approximately 100 mm^3, followed by random segregation of mice into separate groups for administration. Mice were separated into a total of six groups with five […] in each group. Peptides ([…] ID NO: 1) and […] fusion polypeptide (SEQ ID NO: 3), respectively) were administered via the tail vein of the mouse at an equimolar concentration (1 mM peptide 200/20 g body weight of mice, administered 3 times a week for 4 weeks). Mice of the other three groups were intraperitoneally administered with 8 mg/kg dosage concentration of paclitaxel once a week, in addition to the administration of the peptides. […] The weight and tumor size of the mice were observed after administration. The tumor size was measured with a digital caliper, and the volume of the tumor was calculated by the following equation: V=(L×W×H)/2 (L: the longest-length, W: Short length, H: height) The mice were sacrificed after the last dose, and metastasis of the tumor into the lungs and liver was evaluated. The excised tumors and organs were fixed in 4% PFA and used for additional immunohistological analysis. Frozen tumor tissues were blocked with a blocking solution of 1 g of BSA, 0.2 g of gelatin and 0.05 g of saponin dissolved in PBS, followed by incubation using primary antibodies for 11⁄2 hours and staining using HRP-labeled secondary antibodies for 45 minutes at room temperature. The stained tissues were exposed using DAB (DAKO) and a contrast dyeing was performed using hematoxylin for 5 minutes at room temperature. Each step moved onto the next one after washing with PBS containing 10% blocking solution. Finally, the tissues were observed by Bright Field Microscopy.

wild-type 4T1 cells = assay: Cytotoxicity evaluation (CCK8 kit); assay type: cell-based, mouse; conditions: FIG. 10A
Method: (§2) Absorbance was measured at 450 nm, and cytotoxicity was calculated by the following equation:
(§3) Cell viability=(A sample−A blank/A control−A blank)×100
(§4) A control=Absorbance value of the well which contains only cells and CCK8 solution

[3] = test system: IL-10-treated 4T1 tumor cells; assay: Cytotoxicity evaluation (CCK8 kit); assay type: cell-based, mouse; conditions: FIG. 10B
Method: as §2, §3, §4

[4] = test system: M2 type macrophages (tumor-associated macrophages, TAM)
Method: as §2, §3, §4

mouse IL-4 receptor = target: T2, mouse IL-4 receptor (mouse, UniProt P16382 26-810); assay: in vivo and ex vivo fluorescence imaging, Flamma 675-labelled peptide, 4T1 tumor-bearing Balb/c mice
T2 construct: whole, on cells; The target is endogenous receptor on mouse cells, not a purified protein; also called IL4R alpha
T2 sequence (looked up): T1 sequence (P16382 26-810)
Method: as §1
It was evaluated whether the IL4RPep-1 peptide having the amino acid sequence of SEQ ID NO: 1 specifically binds to IL-4 receptor in 4T1 tumor cells-transplanted Balb/c wild-type mice and Balb/c IL-4 receptor-deficient (knockout) mice, respectively. That is, Flamma 675-labeled IL4RPep-1 peptides and control peptides (NSSSVDK, SEQ ID NO: 7) were administered into the tail vein of the mouse, respectively, followed by real time observation for fluorescence intensity.

[5] = 4T1-transplanted wild-type Balb/c mice, in vivo and ex vivo
[6] = frozen tumor sections, antibody staining, versus control group, FIG. 13

Method for M1-type macrophages: as §2, §3, §4

CRKRLDRNC [IL4RPep-1]
binding to cells versus expression pattern of IL-4 receptors (IL-4 receptor [1]; 4T1, A549, MDA-MB 231, M1 and M2 type Raw 264.7 cells, FITC-labeled peptide 10 μM): specifically bind to IL-4 receptors | binding pattern to cells versus expression pattern of IL-4 receptors (IL-4 receptor [1]; mouse spleen-derived M1 type and M2 type macrophages, FIG. 2A): the same as the expression pattern of IL-4 receptors | fluorescence in tumor tissues (IL-4 receptor [2]; 4T1-transplanted IL-4 receptor-deficient (knockout) Balb/c mice): no fluorescence was detected | fluorescence in tumor tissues (IL-4 receptor [2]; [5]): strongly detected | peptide binding in excised tumor tissue fragments (IL-4 receptor [2]; IL-4 receptor-deficient mice, immunostaining, FIG. 4B): no binding | peptide staining in excised tumor tissue fragments (IL-4 receptor [2]; wild-type mice, immunostaining, FIG. 4A): in the same pattern as that of IL-4 receptors | binding affinity in IL-10-treated 4T1 cells compared with wild-type 4T1 cells (IL-10-treated 4T1 cells): significantly excellent

CRKRLDRNCGGGKLAKLAKKLAKLAK (Fusion peptide) [IL4RPep-1-KLA]
cytotoxicity (M1-type macrophages): insignificant | tumor growth (4T1 tumor; Balb/c mice, tail vein, 3 times a week for 4 weeks, from administration until end of experiment, FIG. 11): significantly suppressed | CD4(+) T cells in tumor tissue (4T1 tumor; [6]): decreased | CD8 (+) T cells in tumor tissue (4T1 tumor; [6]): increased | CD80(+) macrophages in tumor tissue (4T1 tumor; [6]): increased | F4/80(+) tumor-associated macrophages in tumor tissue (4T1 tumor; [6]): reduced | N-cadherins in tumor tissue (4T1 tumor; [6]): reduced | metastasis of cancer in liver and lungs (4T1 tumor; organs excised after final administration, FIGS. 12A and 12B): not observed at all | cytotoxicity (wild-type 4T1 cells): insignificant | cytotoxicity [3]: excellent cytotoxicity | cytotoxicity [4]: excellent cytotoxicity

NSSSVDK [control peptide, reference compound]
fluorescence in tumor tissues (IL-4 receptor [2]; [5]): no fluorescence was detected

NSSSVDK (also: Flamma 675 label, position not given here, Control peptide) [control peptide (NSSSVDK)]
binding result (mouse IL-4 receptor): no binding
